How the values were obtained:
[1] = test system: blood CCR2+CD11b+ monocytes and regulatory T cells (Tregs); assay: Blood immune cell populations of db/db mice, flow cytometry; assay type: in vivo; settings: whole blood
Procedure: Obese db/db mice were fed high-fat diets containing 0, 15, or 70 mg/kg diet rosiglitazone maleate (control, Ros^lo, and Ros^hi, respectively) with and without racemic ABA (100 mg/kg diet). On day 60 the percent of F4/80+CD11b+ in the stromal vascular fractions of abdominal white adipose tissue (Ab. WAT) (A) and subcutaneous WAT (B) were assessed by flow cytometry. The percent of CD11b+CCR2+ monocytes (C) and CD4+CD25+FoxP3+ Tregs (D) in blood were assessed in whole blood. The expressions of the M1 marker CCL17 (E) and peroxisome proliferator activated receptor γ (PPAR γ) (F) in Ab. WAT were calculated as a ratio to the housekeeping gene f3-actin. Data are represented as mean±standard error.
Mice (n=40) were fed one of six experimental diets: a control high-fat diet (control), a high-fat diet containing low dose rosiglitazone maleate (Ros^lo, 10 mg/kg diet), or a high-fat diet containing a high dose of rosiglitazone maleate (Ros^hi, 70 mg/kg diet), each with or without all racemic ABA (100 mg/kg, Sigma Aldrich, St. Louis, Mo.) for 60 days. […] Blood glucose levels were assessed with an ACCU-CHEK® Glucometer (Roche, Indianapolis, Ind.). An intraperitoneal glucose tolerance test (IPGTT, 1 g glucose/kg body weight) was conducted on fasted mice (12 h) for 0, 30, 90, and 180 minute time points and insulin levels were measured on day 54. […]

[2] = test system: retinoid X receptor (RXR); assay: RXR luciferase reporter in transfected 3T3-L1 preadipocytes; assay type: cell-based; settings: ABA 10 μM with 9-cis retinoic acid 10 μM
Procedure: A pCMX.L-RXR or pCMX.RAR expression plasmid and a luciferase reporter plasmid were purified using Qiagen's Maxi kit (Valencia, Calif.). 3T3-L1 preadipocytes (American Type Culture Collection, Manassas, Va.) were grown in DMEM high glucose medium (Invitrogen, Carlsbad, Calif.) containing 10% fetal bovine serum (FBS). The cells cultured in 25 cm^2 flasks were co-transfected with 0.6 ug plasmid DNA and 1 ng of pRL reporter control plasmid per well using F-2 transfection reagents (Targeting Systems, Santee, Calif.) according to the manufacturer's protocol. After 24 hours, transfected cells were split trypsin and seeded into 96-well white plates at a concentration of 20,000 cells/wells. The transfected cells were then treated with 9-cis retinoic acid (0, 10 μM; Sigma), or retinoic acid (RA, 10 μM; Sigma), with ABA (10 μM; Sigma) Transfected cells were harvested in reporter lysis reagent. Luciferase activity, normalized to pRL activity in the cell extracts was determined by using the dual luciferase reporter assay system (Promega, Madison, Wis.) in a Modulus 96-well plate reader (Turner Biosystems, Sunnyvale, Calif.). Relative luciferase activity (RLA) was calculated as a ratio of the chemiluminescence 10 seconds after the Luciferase Assay Reagent II (Promega) was added over the chemiluminescence 10 seconds after the Stop&Glo Reagent (Promega).

[3] = test system: insulin-secreting pancreatic beta cells; assay: Pancreatic beta cell viability / apoptosis after streptozotocin challenge; assay type: cell-based
Excerpt: Data are presented as mean±standard error.

## CC1=CC(=O)CC(C)(C)C1(O)/C=C/C(C)=C\C(=O)O (racemic) [ABA, abscisic acid]
[1]
  blood CCR2+CD11b+ monocyte levels: mitigated
[1]; independently of Ros
  percentages of blood regulatory T cells (Tregs): increased
[2]
  activity of RXR ligands: synergistically enhances
[3]; ABA 1 and 10 micromolar, streptozotocin (STZ) 2 mM for 24 hours
  viability of insulin-secreting pancreatic beta cells: increases
[3]; FIG. 4
  pancreatic beta cell apoptosis caused by streptozotocin: diminishes
